This note sets out measurements from ChEMBL document CHEMBL3507680, “University of Dundee, Gates Library screen for HepG2 cell viability”.

The structures appear in SMILES notation.

This series is described as follows: Human HepG2 cell viability assay in 384 well format. Set-up: dose 125 nL, time 70.5 hour; concentration not given beside the values. The note with it: HepG2 cells, read-out: Inhibition. The series is classed as toxicity, cell-based.
For the compound `CC(C)NC(=O)Nc1ccc(-c2nc(C(C)C)no2)cc1`, the cytotoxicity at 70.5 h was -8.44%. For the compound `CC(C)N(C(=O)CCc1cccc(F)c1)C1CCOCC1`, the cytotoxicity at 70.5 h is -4.3%. As for `CC(C)c1noc(-c2ccc(NC(=O)NCC(O)C(C)C)cc2)n1` (configuration not stated), the figure is -7.09%; as for `CC(=O)N(C)Cc1cccc(NC(=O)N(C)Cc2nccs2)c1`, -4.8%. For the compound `CCc1cnc(NC(=O)NC2CCN(C3CCCC3)CC2)s1`, the cytotoxicity at 70.5 h was -7.06%.

For `O=C(c1c[nH]c2ccccc2c1=O)N1CCSCC1`, the cytotoxicity at 70.5 h is -6.3%. With `O=C(c1c(F)cc(Br)cc1F)N1CCc2cnccc21`, the cytotoxicity at 70.5 h is -5.62%. For `O=C(c1c(O)cc(F)cc1F)N1CCc2cnccc21`, the cytotoxicity at 70.5 h is 0.9%.

Take `CC(C)CSCCCNC(=O)C1CCOC1` (configuration not stated): the cytotoxicity at 70.5 h is -5.76%. `Cc1cc(CNCCNS(C)(=O)=O)sc1Br`: the cytotoxicity at 70.5 h was 4.81%.

Regarding `CC(NCc1cccs1)c1ccc(OCc2nccn2C)cc1` (configuration not stated), the cytotoxicity at 70.5 h is -4.31%.

`CC(=O)N(C)Cc1cccc(NC(=O)N(C)CCc2cccs2)c1`: the cytotoxicity at 70.5 h was 11.4%. Regarding `Cc1cccc(CC(=O)Nc2cccnc2N2CCC(CO)CC2)c1`, the cytotoxicity at 70.5 h is -2.43%. Consider `Cc1[nH]ncc1CCCNC(=O)N1CCOC(C)C1` (configuration not stated), for which the cytotoxicity at 70.5 h was -5.97%. In the case of `COCCC1(CNC(=O)NCC2CN(C)CCN2C)CCC1` (configuration not stated) it was -2.66%. For the compound `Cc1cc(CN2CCN(C(=O)NCCCc3cn[nH]c3C)CC2)on1`, the cytotoxicity at 70.5 h is -4.02%.

Regarding `CSCCC(NC(N)=O)C(=O)NCc1c(C)nn(-c2ccccc2)c1C` (configuration not stated), the cytotoxicity at 70.5 h was -4.27%. As for `CCNC(=O)NC(=O)CN1CCOC(c2cccc(Br)c2)C1` (configuration not stated), the figure is -8.56%; as for `Cc1cccc(C(C)(C)CNC(=O)CN(C)S(=O)(=O)c2cccnc2)c1`, -15.3%.

As for `CN(CCc1nc2ccccc2c(=O)[nH]1)CCC(F)(F)F`, the cytotoxicity at 70.5 h was -6.6%.

On to `CC(=O)N1CCC(NC(=O)NCCCc2cn[nH]c2C)CC1`, for which the cytotoxicity at 70.5 h came out at 0.436%.

As for `NS(=O)(=O)c1cnc(NCC2(c3cccc(F)c3)CCOCC2)s1`, the cytotoxicity at 70.5 h is -0.912%. For `NS(=O)(=O)c1cnc(NCC2(c3ccccc3)CCC2)s1`, the cytotoxicity at 70.5 h is -2.17%.

As for `CCN1CCNC(=O)C12CCN(C(=O)Cc1ccccn1)CC2`, the cytotoxicity at 70.5 h was -1.44%. Regarding `COc1cc(N2CCC3(CC2)CN(CCO)c2ccccc23)ncn1`, the cytotoxicity at 70.5 h was -0.577%. Turning to `O=c1ccc2c([nH]1)CCC(NS(=O)(=O)C1CC1)C2` (configuration not stated), the cytotoxicity at 70.5 h was -4.74%.

For the compound `COCCn1c2c(ccc1=O)CCN(C(=O)C1CC=CC1)CC2`, the cytotoxicity at 70.5 h is -2.63%. Regarding `CN(C)Cc1nc(-n2cnc(C(=O)NCC3CC3)c2)n2ccccc12`, the cytotoxicity at 70.5 h is -3.22%. Turning to `COCCn1c2c(ccc1=O)CCN(C(=O)NC1CC1)CC2`, the cytotoxicity at 70.5 h was -3.9%. Turning to `Cc1ccc2c(n1)N(Cc1cccnc1)CCN(Cc1cnn(C)c1)C2`, the cytotoxicity at 70.5 h is -2.59%. For the compound `COCC(=O)N1CCc2ccc(=O)n(CC3CC3)c2CC1`, the cytotoxicity at 70.5 h is -2.86%. Regarding `CC(C)NC(=O)N1CCC2(CC1)Cc1ccccc1CNC2=O`, the cytotoxicity at 70.5 h is -4.51%. For `Cc1cc(C(=O)NCC2OCCc3cn(CC4CC4)nc32)c(C)[nH]1` (configuration not stated), the cytotoxicity at 70.5 h was -3.07%. As to `COCCn1cc2c(n1)C(CNC(=O)c1cc(C)[nH]c1C)OCC2` (configuration not stated), the cytotoxicity at 70.5 h is -2.66%. Consider `CN(C)Cc1nc(-n2cnc(C(=O)NC3CCCC3)c2)n2ccccc12`, for which the cytotoxicity at 70.5 h is -3.17%. In the case of `Cc1nc(CN2CCC3(C2)CN(C(=O)c2conc2C)C3)cs1` it was -3.94%.

Regarding `O=C(c1ccccc1)N1CCOC2CNCC[C@H]21` (some centres not stated), the cytotoxicity at 70.5 h is -7.04%. In the case of `CC(C)NC(=O)c1cc2c(s1)CCN2c1ncccn1`, the cytotoxicity at 70.5 h worked out at 3.85%. As for `O=C(c1ccccc1)N1CCO[C@@H]2CNC[C@@H]21`, the figure is -5.73%; as for `COCCNC(=O)C[C@@H]1COC[C@H]2CN(C(=O)COC)C[C@@H]12`, -8.18%; as for `CCn1nnc2c1C(COC)CN(Cc1ccco1)C2` (configuration not stated), 39.7%. As for `O=C(c1ccoc1)N1Cc2cnn(CC3CC3)c2C(COCC2CC2)C1` (configuration not stated), the figure is 16%. For `O=C(NC1CC1)N1C[C@@H]2CCN(C(=O)c3cscn3)[C@@H]2C1`, the cytotoxicity at 70.5 h was determined as 10.3%. As for `CCN1Cc2ccccc2CC2(CCN(CC3CCC3)CC2)C1=O`, the figure is 11.7%.

`Cc1cc(C(=O)NC2CCc3c(ccc(=O)n3CC3CC3)C2)no1` (configuration not stated): the cytotoxicity at 70.5 h is -6.82%. In the case of `CCS(=O)(=O)N1CCN(CCOC)c2ncccc2C1`, the cytotoxicity at 70.5 h was -4.33%. Take `Cn1nccc1-c1ncc(-c2cc(C(=O)O)n(CC3CC3)c2)cn1`: the cytotoxicity at 70.5 h amounted to 6.58%. In the case of `Cn1ccnc1CN1CCC2(CC1)CC(N1CCCC1)c1ccccc12` (configuration not stated), the cytotoxicity at 70.5 h was -4.57%. Regarding `Cn1cc(-c2cnc(-c3ccnn3C)nc2)cc1C(=O)NC1CC1`, the cytotoxicity at 70.5 h was -4.34%. As to `CS(=O)(=O)N1C[C@@H]2CCN(C(=O)c3cscn3)[C@@H]2C1`, the cytotoxicity at 70.5 h was -2.23%. Take `COCCN1CCN(S(=O)(=O)C2CC2)Cc2cccnc21`: the cytotoxicity at 70.5 h was -5.48%.

For the compound `Cn1cc(CN2CCc3ccc(=O)n(CC4CC4)c3CC2)cn1`, the cytotoxicity at 70.5 h was 4.08%. Regarding `Cc1cn2c(=O)c(-c3ccnc(N[C@@H](C)CO)n3)cnc2s1`, the cytotoxicity at 70.5 h was -5.83%. On to `COCCN1CC(=O)c2sc(NCc3ccccc3)nc2C1`, for which the cytotoxicity at 70.5 h was 0.849%. As for `OC[C@@H]1CCCN1c1nccc(-c2c[nH]nc2-c2ccncc2)n1`, the cytotoxicity at 70.5 h is -2.39%. As for `COc1ccc2[nH]cc(-c3ccnc(N4CCC(C)CC4)n3)c2c1`, the cytotoxicity at 70.5 h worked out at 1.51%. Consider `NS(=O)(=O)NCc1cc(-c2ccco2)n(CC(F)(F)F)n1`, for which the cytotoxicity at 70.5 h was -5.08%.

As to `Cc1ncc(-c2ccnc(N[C@@H](C)CO)n2)c(C2CCCCC2)n1`, the cytotoxicity at 70.5 h came out at 24.8%. For `O=c1c(-c2ccnc(N3CCC[C@H]3CO)n2)cnc2sccn12`, the cytotoxicity at 70.5 h is -1.75%. As for `CCNc1nc2c(s1)C(=O)CN(C(=O)NCc1ccccc1)C2`, the figure is -0.493%. In the case of `CC(C)NC(=O)N1CC(=O)c2sc(NC3CCCCC3)nc2C1`, the cytotoxicity at 70.5 h came out at 3.79%. Turning to `OCCNc1nccc(-c2cn3nccc3nc2C2CCCCC2)n1`, the cytotoxicity at 70.5 h was -8.52%. For the compound `COc1cccc(OC)c1-c1ccnc2cc(CC(=O)N(C)C)nn12`, the cytotoxicity at 70.5 h was -11.5%. Turning to `CC(=O)Nc1nc(C)c(S(=O)(=O)NCCc2ccccn2)s1`, the cytotoxicity at 70.5 h was -3.16%. Consider `CC(=O)Nc1nc(C)c(S(=O)(=O)NCCc2cccnc2)s1`, for which the cytotoxicity at 70.5 h stood at 1.62%. On to `CC(=O)N1CCC(n2nccc2-c2cnc(N3CCCC3)nc2)CC1`, for which the cytotoxicity at 70.5 h is -9%. Turning to `Cc1cn2c(=O)c(-c3ccnc(N4CCC[C@@H]4CO)n3)cnc2s1`, the cytotoxicity at 70.5 h was -3.36%.

As for `COCCCNc1nc(CNC(=O)C2CCC2)cc(-c2ccco2)n1`, the cytotoxicity at 70.5 h is -5.78%. For the compound `CC(=O)N1CCC(n2nccc2-c2cnc(N(C)CCO)nc2)CC1`, the cytotoxicity at 70.5 h was -6.31%.

For the compound `c1cc(-c2cn3nccc3nc2C2CCCCC2)nc(N2CCCC2)n1`, the cytotoxicity at 70.5 h is -7.05%.

Consider `NC(=O)[C@H]1CCCN(c2nccc(-c3c[nH]nc3-c3cccnc3)n2)C1`, for which the cytotoxicity at 70.5 h is -2.79%. For `O=C([C@H]1CCCN1)N1CC2(CCNCC2)c2cc(Cl)ccc21`, the cytotoxicity at 70.5 h turned out to be 30%. For the compound `O=C([C@@H]1CSCN1)N1CC2(CCNCC2)c2cc(Cl)ccc21`, the cytotoxicity at 70.5 h is -3.25%. For the compound `CC(C)N(C)Cc1cncc2c1CCN(C1CCOCC1)C2`, the cytotoxicity at 70.5 h was -6.55%. Turning to `CCOC1COC2(CCN(C(=O)c3cccc(C)n3)CC2)C1` (configuration not stated), the cytotoxicity at 70.5 h was -0.53%. `CNC(=O)[C@H]1C[C@@H]2CN(Cc3csc(C)n3)C[C@@H]2N1S(C)(=O)=O`: the cytotoxicity at 70.5 h stood at 27.8%. On to `CN(C)CC(=O)N1CCC2(CC1)Cc1ccccc1CN(C)C2=O`, for which the cytotoxicity at 70.5 h worked out at 23.3%.

`CC(=O)N1CCC2(CC1)CN(C(=O)[C@@H]1CSCN1)c1ccc(Cl)cc12`: the cytotoxicity at 70.5 h stood at 1.24%. Regarding `O=C(c1cscn1)N1CCCC2(CCN2Cc2cccc(F)c2)C1` (configuration not stated), the cytotoxicity at 70.5 h is -0.0272%. In the case of `O=C(O)[C@]12CCCN(CC3CCOC3)C[C@H]1CN(c1ncccn1)C2` (some centres not stated) it was -5.74%; in that of `CCOCc1nn(C)c2c1CN(Cc1cccs1)CC2`, -7.58%; in that of `O=C(c1ccsc1)N1CCO[C@@H]2CN(Cc3nccs3)C[C@@H]2C1`, -3.17%. `Cc1cnc(N2CCC3(CCN(Cc4csc(C)n4)C3=O)C2)nc1` (configuration not stated): the cytotoxicity at 70.5 h is -5.87%. Turning to `Cn1cccc1C(=O)N1CCO[C@@H]2CN(Cc3nccs3)C[C@@H]2C1`, the cytotoxicity at 70.5 h is -6.7%.

With `Cc1noc(C)c1CN1CCOCC12CCN(c1ncccn1)CC2`, the cytotoxicity at 70.5 h was -8.87%. In the case of `N#Cc1ccc(N2CCC3(CC2)CC(N2CCOCC2)CO3)cc1` (configuration not stated) it was -6.28%; in that of `CN(C)C(=O)Cn1c2c(ccc1=O)CCN(Cc1cnn(C)c1)CC2`, 2.17%; in that of `Cc1nc(CN2CCO[C@@H]3CC(COc4ccccn4)C[C@H]32)cs1` (some centres not stated), -1.88%. Take `Cc1cc(C(=O)N2CC[C@H]3[C@H](C[C@@H](CN4CCCC4)N3C)C2)c(C)o1`: the cytotoxicity at 70.5 h worked out at 1.81%.

As for `c1cnc(N2CCN3C[C@H](Oc4cncnc4)C[C@H]3C2)nc1`, the cytotoxicity at 70.5 h is -1.15%.

Regarding `CN(C)C(=O)C1CCN(C2CCN(CC3CCC3)CC2)CC1`, the cytotoxicity at 70.5 h is -1.7%.

With `Cc1oncc1C(=O)N1CC[C@H]2[C@H](C[C@@H](CN(C)C)N2CC2CC2)C1`, the cytotoxicity at 70.5 h is -0.907%. Take `CC(C)CC(=O)N1CC[C@H]2N(C)CC[C@@]2(C(=O)Nc2cccnc2)CC1`: the cytotoxicity at 70.5 h is -9.05%. On to `CN(C)CCOCc1cncc2c1CCN(C(=O)C1CCOCC1)C2`, for which the cytotoxicity at 70.5 h was -6.54%.

Take `Cc1noc(C)c1CN1CCn2cc(CNc3ccccn3)nc2C1`: the cytotoxicity at 70.5 h is 5.28%.

With `O=C(O)c1c(-c2cncnc2)ncc2c1CCN(Cc1cccnc1)C2`, the cytotoxicity at 70.5 h came to 2.19%.

Regarding `CN(C)CCOCc1cncc2c1CCN(C1CCOCC1)C2`, the cytotoxicity at 70.5 h is -11.2%.
